{"source": "patent US20150307938A1", "about": "“METHOD TO IDENTIFY A NOVEL CLASS OF IMMUNOLOGIC ADJUVANTS” (Lancell, L.L.C., priority 2011, published 2015)", "tested_on": "skin", "assay": "Affymetrix microarray of skin, DBP-4 hr and analogs vs. untreated; gene selection by log-2 fold change, Wilcoxon, Kendall tau (Tables 8, 9)", "format": "in vivo, mouse", "key": {"[1]": {"settings": "Kendall tau, expression vs. output"}}}
{"compound": "CCCCOC(=O)c1ccccc1C(=O)OCCCC", "note": "[DBP, dibutylphthalate]", "values": [{"measurement": "Oxr1 NM_001130166_at Kendall", "setting": "[1]", "value": "Yes"}, {"measurement": "Pgam2 NM_018870_at Kendall", "setting": "[1]", "value": "No"}, {"measurement": "Pigyl NM_001082532_at Kendall", "setting": "[1]", "value": "Yes"}, {"measurement": "Pparg NM_001127330_at Kendall", "setting": "[1]", "value": "Yes"}, {"measurement": "Ppih NM_001110129_at Kendall", "setting": "[1]", "value": "Yes"}, {"measurement": "Prg4 NM_021400_at Kendall", "setting": "[1]", "value": "No"}, {"measurement": "Retnla NM_020509_at Kendall", "setting": "[1]", "value": "No"}, {"measurement": "Rffl NM_001007465_at Kendall", "setting": "[1]", "value": "Yes"}, {"measurement": "Rn18s NR_003278_at Kendall", "setting": "[1]", "value": "No"}, {"measurement": "Rpl3l NM_025425_at Kendall", "setting": "[1]", "value": "No"}, {"measurement": "Slc39a14 NM_001135151_at Kendall", "setting": "[1]", "value": "Yes"}, {"measurement": "Sln NM_025540_at Kendall", "setting": "[1]", "value": "No"}, {"measurement": "Smpx NM_025357_at Kendall", "setting": "[1]", "value": "No"}, {"measurement": "Tnfrsf9 NM_001077508_at Kendall", "setting": "[1]", "value": "Yes"}, {"measurement": "Tnfrsf9 NM_001077509_at Kendall", "setting": "[1]", "value": "Yes"}, {"measurement": "Tnni1 NM_021467_at Kendall", "setting": "[1]", "value": "No"}, {"measurement": "Trdn NM_029726_at Kendall", "setting": "[1]", "value": "No"}, {"measurement": "Trf NM_133977_at Kendall", "setting": "[1]", "value": "No"}, {"measurement": "Trp63 NM_001127259_at Kendall", "setting": "[1]", "value": "Yes"}, {"measurement": "Trp63 NM_001127260_at Kendall", "setting": "[1]", "value": "Yes"}, {"measurement": "Trp63 NM_001127262_at Kendall", "setting": "[1]", "value": "Yes"}, {"measurement": "Trp63 NM_001127264_at Kendall", "setting": "[1]", "value": "Yes"}, {"measurement": "Ttn NM_028004_at Kendall", "setting": "[1]", "value": "No"}, {"measurement": "Wbp1 NM_001083922_at Kendall", "setting": "[1]", "value": "Yes"}, {"measurement": "Wbp1 NM_001083923_at Kendall", "setting": "[1]", "value": "Yes"}, {"measurement": "Wfdc2 NM_026323_at Kendall", "setting": "[1]", "value": "No"}, {"measurement": "Zfp68 NM_001044747_at Kendall", "setting": "[1]", "value": "Yes"}, {"measurement": "Zfp187 NM_001013786_at Kendall", "setting": "[1]", "value": "Yes"}, {"measurement": "Zfp518b NM_001081144_at Kendall", "setting": "[1]", "value": "Yes"}, {"measurement": "Zfp943 NM_001025373_at Kendall", "setting": "[1]", "value": "Yes"}, {"measurement": "Wilcoxon", "setting": "Map3k8 NM_007746_at, DBP-4 hr vs. untreated", "value": "No"}, {"measurement": "Kendall", "setting": "Map3k8 NM_007746_at, Kendall tau coefficient", "value": "No"}, {"measurement": "DBP Expression: Adam8", "setting": "NM_007403_at, DBP-4 hr", "value": 8.84}, {"measurement": "DBP Expression: Birc3", "setting": "NM_007464_at, DBP-4 hr", "value": 10.36}, {"measurement": "DBP Expression: Btg2", "setting": "NM_007570_at, DBP-4 hr", "value": 10.63}, {"measurement": "DBP Expression: Cebpd", "setting": "NM_007679_at, DBP-4 hr", "value": 10.17}, {"measurement": "DBP Expression: Socs2", "setting": "NM_007706_at, DBP-4 hr", "value": 8.92}, {"measurement": "DBP Expression: Socs3", "setting": "NM_007707_at, DBP-4 hr", "value": 9.48}, {"measurement": "DBP Expression: Map3k8", "setting": "NM_007746_at, DBP-4 hr", "value": 8.72}, {"measurement": "DBP Expression: Csf2rb", "setting": "NM_007780_at, DBP-4 hr", "value": 7.73}, {"measurement": "DBP Expression: Csrp1", "setting": "NM_007791_at, DBP-4 hr", "value": 9.89}, {"measurement": "DBP Expression: Egr1", "setting": "NM_007913_at, DBP-4 hr", "value": 12.15}, {"measurement": "DBP Expression: F2rl1", "setting": "NM_007974_at, DBP-4 hr", "value": 9.38}, {"measurement": "DBP Expression: Fgfbp1", "setting": "NM_008009_at, DBP-4 hr", "value": 11.47}, {"measurement": "DBP Expression: Gjb2", "setting": "NM_008125_at, DBP-4 hr", "value": 8.85}, {"measurement": "DBP Expression: Gpr65", "setting": "NM_008152_at, DBP-4 hr", "value": 5.48}, {"measurement": "DBP Expression: Cxcl1", "setting": "NM_008176_at, DBP-4 hr", "value": 10.24}, {"measurement": "DBP Expression: Gyk", "setting": "NM_008194_at, DBP-4 hr", "value": 9.63}, {"measurement": "DBP Expression: Hdc", "setting": "NM_008230_at, DBP-4 hr", "value": 8.51}, {"measurement": "DBP Expression: Il10ra", "setting": "NM_008348_at, DBP-4 hr", "value": 6.97}, {"measurement": "DBP Expression: Il1b", "setting": "NM_008361_at, DBP-4 hr", "value": 7.67}, {"measurement": "DBP Expression: Il7r", "setting": "NM_008372_at, DBP-4 hr", "value": 7.70}, {"measurement": "DBP Expression: Junb", "setting": "NM_008416_at, DBP-4 hr", "value": 9.71}, {"measurement": "DBP Expression: Krt6a", "setting": "NM_008476_at, DBP-4 hr", "value": 10.76}, {"measurement": "DBP Expression: Mt2", "setting": "NM_008630_at, DBP-4 hr", "value": 13.23}, {"measurement": "DBP Expression: Serpine1", "setting": "NM_008871_at, DBP-4 hr", "value": 8.32}, {"measurement": "DBP Expression: Cxcl2", "setting": "NM_009140_at, DBP-4 hr", "value": 8.67}, {"measurement": "DBP Expression: Sprr1a", "setting": "NM_009264_at, DBP-4 hr", "value": 10.84}, {"measurement": "DBP Expression: Stc1", "setting": "NM_009285_at, DBP-4 hr", "value": 7.56}, {"measurement": "DBP Expression: Tnfaip2", "setting": "NM_009396_at, DBP-4 hr", "value": 8.85}, {"measurement": "DBP Expression: Tnfaip3", "setting": "NM_009397_at, DBP-4 hr", "value": 7.22}, {"measurement": "DBP Expression: Tnfaip6", "setting": "NM_009398_at, DBP-4 hr", "value": 8.79}, {"measurement": "DBP Expression: Traf1", "setting": "NM_009421_at, DBP-4 hr", "value": 6.04}, {"measurement": "DBP Expression: Ccrn4l", "setting": "NM_009834_at, DBP-4 hr", "value": 10.05}, {"measurement": "DBP Expression: Cd44", "setting": "NM_009851_at, DBP-4 hr", "value": 9.82}, {"measurement": "DBP Expression: Ch25h", "setting": "NM_009890_at, DBP-4 hr", "value": 7.68}, {"measurement": "DBP Expression: Cish", "setting": "NM_009895_at, DBP-4 hr", "value": 9.37}, {"measurement": "DBP Expression: Eif1a", "setting": "NM_010120_at, DBP-4 hr", "value": 9.39}, {"measurement": "DBP Expression: Epha2", "setting": "NM_010139_at, DBP-4 hr", "value": 8.60}, {"measurement": "DBP Expression: Fkbp5", "setting": "NM_010220_at, DBP-4 hr", "value": 8.58}, {"measurement": "DBP Expression: Fosl1", "setting": "NM_010235_at, DBP-4 hr", "value": 6.85}, {"measurement": "DBP Expression: Hbegf", "setting": "NM_010415_at, DBP-4 hr", "value": 8.85}, {"measurement": "DBP Expression: Nr4a1", "setting": "NM_010444_at, DBP-4 hr", "value": 10.34}, {"measurement": "DBP Expression: Icam1", "setting": "NM_010493_at, DBP-4 hr", "value": 10.54}, {"measurement": "DBP Expression: Ier2", "setting": "NM_010499_at, DBP-4 hr", "value": 10.73}, {"measurement": "DBP Expression: Cyr61", "setting": "NM_010516_at, DBP-4 hr", "value": 9.37}, {"measurement": "DBP Expression: Jun", "setting": "NM_010591_at, DBP-4 hr", "value": 9.74}, {"measurement": "DBP Expression: Osmr", "setting": "NM_011019_at, DBP-4 hr", "value": 7.49}, {"measurement": "DBP Expression: Plaur", "setting": "NM_011113_at, DBP-4 hr", "value": 7.68}, {"measurement": "DBP Expression: Rab20", "setting": "NM_011227_at, DBP-4 hr", "value": 6.73}, {"measurement": "DBP Expression: Ccl12", "setting": "NM_011331_at, DBP-4 hr", "value": 8.47}, {"measurement": "DBP Expression: Ccl2", "setting": "NM_011333_at, DBP-4 hr", "value": 9.45}, {"measurement": "DBP Expression: Slc7a5", "setting": "NM_011404_at, DBP-4 hr", "value": 10.00}, {"measurement": "DBP Expression: Bhlhe40", "setting": "NM_011498_at, DBP-4 hr", "value": 10.32}, {"measurement": "DBP Expression: Cirh1a", "setting": "NM_011574_at, DBP-4 hr", "value": 9.51}, {"measurement": "DBP Expression: Zfp36", "setting": "NM_011756_at, DBP-4 hr", "value": 10.39}, {"measurement": "DBP Expression: Crem", "setting": "NM_013498_at, DBP-4 hr", "value": 6.91}, {"measurement": "DBP Expression: Gzmb", "setting": "NM_013542_at, DBP-4 hr", "value": 5.74}, {"measurement": "DBP Expression: Mt1", "setting": "NM_013602_at, DBP-4 hr", "value": 12.73}]}
